Test results taken from ChEMBL document CHEMBL6096654, “Allosteric inhibition of PTP1B by bromocatechol-chalcone derivatives” (Eur J Med Chem, 2025).
Activity calls are given as the source filed them. The calls are words filed in the database; no cut-off is given here.

Legend:
[1] = biological target: T1, Tyrosine-protein phosphatase non-receptor type 1 (Homo sapiens, UniProt P18031); test: Allosteric inhibition of PTP1B (unknown origin) using pNPP as substrate incubated for 30 mins by spectrophotometry
T1 sequence (P18031 whole entry): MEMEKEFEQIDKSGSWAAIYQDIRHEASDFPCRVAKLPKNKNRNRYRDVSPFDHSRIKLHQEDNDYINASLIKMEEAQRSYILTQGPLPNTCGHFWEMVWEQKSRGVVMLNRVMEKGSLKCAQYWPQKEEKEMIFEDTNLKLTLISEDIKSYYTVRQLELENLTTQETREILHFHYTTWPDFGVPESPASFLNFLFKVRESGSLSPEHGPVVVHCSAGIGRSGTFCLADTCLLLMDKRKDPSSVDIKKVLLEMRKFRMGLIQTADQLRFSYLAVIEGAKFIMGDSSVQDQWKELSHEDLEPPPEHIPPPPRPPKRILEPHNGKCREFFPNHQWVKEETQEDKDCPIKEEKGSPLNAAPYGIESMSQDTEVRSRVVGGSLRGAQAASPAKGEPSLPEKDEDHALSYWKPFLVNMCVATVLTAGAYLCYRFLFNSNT

[2] = Inhibition of PTP1B N193A/K197A mutant (unknown origin) using pNPP as substrate incubated for 30 mins by spectrophotometry; parameters: species or system Homo sapiens
[3] = biological target: T2, Tyrosine-protein phosphatase non-receptor type 2 (Homo sapiens, UniProt P17706); test: Inhibition of TCPTP (unknown origin) using pNPP as substrate incubated for 30 mins by spectrophotometry
T2 sequence (P17706 whole entry): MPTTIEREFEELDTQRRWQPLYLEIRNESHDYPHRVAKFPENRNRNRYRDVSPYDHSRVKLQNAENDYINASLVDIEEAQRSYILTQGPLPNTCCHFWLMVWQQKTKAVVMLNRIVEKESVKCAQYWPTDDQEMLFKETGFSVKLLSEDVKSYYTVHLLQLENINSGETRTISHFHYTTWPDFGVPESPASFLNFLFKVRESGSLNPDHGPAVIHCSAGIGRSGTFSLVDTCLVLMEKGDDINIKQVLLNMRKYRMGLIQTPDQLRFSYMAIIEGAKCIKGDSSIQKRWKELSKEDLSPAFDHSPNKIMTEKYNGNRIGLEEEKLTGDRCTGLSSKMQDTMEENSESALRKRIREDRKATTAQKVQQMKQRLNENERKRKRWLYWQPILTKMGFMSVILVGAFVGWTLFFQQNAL

[4] = biological target: T1, Tyrosine-protein phosphatase non-receptor type 1; test: Binding affinity to PTP1B (unknown origin) assessed as dissociation constant by SPR analysis
[5] = system: HepG2; test: Inhibition of insulin-resistance in insulin-resistant human HepG2 cells assessed as increase in insulin receptor phosphorylation pretreated for 24 hrs followed by compound washout and further addition of insulin measured after 20 mins by Western blot analysis; type: functional, cell-based; settings: dose 0.625-2.5 µM
[6] = system: Hepatocyte; test: Inhibition of insulin-resistance in insulin-resistant C57BL/J mouse […] primary hepatocytes assessed as increase in insulin receptor phosphorylation pretreated for 24 hrs followed by compound washout and further addition of insulin measured after 20 mins by Western blot analysis; type: functional, cell-based; settings: dose 0.625-2.5 µM
[7] = system: C2C12; test: Inhibition of insulin-resistance in insulin-resistant mouse C2C12 cells assessed as increase in insulin receptor phosphorylation pretreated for 24 hrs followed by compound washout and further addition of insulin measured after 20 mins by Western blot analysis; type: functional, cell-based; settings: dose 0.625-2.5 µM
[8] = system: Hepatocyte; test: Inhibition of insulin-resistance in insulin-resistant C57BL/J mouse […] primary hepatocytes assessed as increase in AKT phosphorylation pretreated for 24 hrs followed by compound washout and further addition of insulin measured after 20 mins by Western blot analysis; type: functional, cell-based; settings: dose 0.625-2.5 µM
[9] = system: C2C12; test: Inhibition of insulin-resistance in insulin-resistant mouse C2C12 cells assessed as increase in AKT phosphorylation pretreated for 24 hrs followed by compound washout and further addition of insulin measured after 20 mins by Western blot analysis; type: functional, cell-based; settings: dose 0.625-2.5 µM
[10] = system: 3T3-L1; test: Induction of glucose uptake in mouse 3T3-L1 cells cultured in low glucose medium containing compound for 24 hrs; type: functional, cell-based; settings: dose 0.625-2.5 µmol/L
[11] = Acute toxicity in Kunming mouse assessed as toxic effects at 2000 mg/kg, po measured for 14 days; type: organism-based; settings: in vivo, 336 h, time 14 day
[12] = Acute toxicity in Kunming mouse assessed as animal mortality at 2000 mg/kg, po measured for 14 days; type: organism-based; settings: in vivo, 336 h, time 14 day
[13] = Acute toxicity in Kunming mouse assessed as change in cell morphology of heart at 2000 mg/kg, po measured for 14 days by H and E staining based analysis; type: organism-based; settings: in vivo, 336 h, time 14 day
[14] = Acute toxicity in Kunming mouse assessed as change in cell morphology of liver at 2000 mg/kg, po measured for 14 days by H and E staining based analysis; type: organism-based; settings: in vivo, 336 h, time 14 day
[15] = Acute toxicity in Kunming mouse assessed as change in cell morphology of spleen at 2000 mg/kg, po measured for 14 days by H and E staining based analysis; type: organism-based; settings: in vivo, 336 h, time 14 day
[16] = Acute toxicity in Kunming mouse assessed as change in cell morphology of kidney at 2000 mg/kg, po measured for 14 days by H and E staining based analysis; type: organism-based; settings: in vivo, 336 h, time 14 day
[17] = Toxicity in BKD db/db mouse assessed as effect on body weight at 40 to 80 mg/kg/day, po qd for 8 weeks; type: organism-based; settings: in vivo, 1344 h, dose 40-80 mg/kg/day
[18] = Toxicity in BKD db/db mouse assessed as effect on liver weight at 40 to 80 mg/kg/day, po qd for 8 weeks; type: organism-based; settings: in vivo, 1344 h, dose 40-80 mg/kg/day
[19] = Toxicity in BKD db/db mouse assessed as effect on kidney weight at 40 to 80 mg/kg/day, po qd for 8 weeks; type: organism-based; settings: in vivo, 1344 h, dose 40-80 mg/kg/day
[20] = Toxicity in BKD db/db mouse assessed as effect on epididymal white adipose tissue weight at 40 to 80 mg/kg/day, po qd for 8 weeks; type: organism-based; settings: in vivo, 1344 h, dose 40-80 mg/kg/day
[21] = Toxicity in BKD db/db mouse assessed as effect on para-metrial white adipose tissue weight at 40 to 80 mg/kg/day, po qd for 8 weeks; type: organism-based; settings: in vivo, 1344 h, dose 40-80 mg/kg/day
[22] = Toxicity in BKD db/db mouse assessed as effect on subcutaneous fat weight at 40 to 80 mg/kg/day, po qd for 8 weeks; type: organism-based; settings: in vivo, 1344 h, dose 40-80 mg/kg/day
[23] = system: Mus musculus; test: Hypoglycemic activity in BKD db/db mouse assessed as decrease in serum insulin level at 40 to 80 mg/kg/day, po qd for 7 weeks; type: functional, organism-based; settings: dose 40-80 mg/kg/day
[24] = system: Mus musculus; test: Hypoglycemic activity in BKD db/db mouse assessed as decrease in blood glucose level at 40 to 80 mg/kg/day, po for 6 weeks by OGTT method; type: functional, organism-based; settings: dose 40-80 mg/kg/day
[25] = system: Mus musculus; test: Hypoglycemic activity in BKD db/db mouse assessed as increase in insulin receptor phosphorylation in epididymal white adipose tissue at 40 to 80 mg/kg/day, po for 8 weeks by Western blot analysis; type: functional, organism-based; settings: dose 40-80 mg/kg/day
[26] = system: Mus musculus; test: Hypoglycemic activity in BKD db/db mouse assessed as increase in AKT phosphorylation in liver at 40 to 80 mg/kg/day, po for 8 weeks by Western blot analysis; type: functional, organism-based; settings: dose 40-80 mg/kg/day
[27] = system: Mus musculus; test: Hypoglycemic activity in BKD db/db mouse assessed as increase in AKT phosphorylation in epididymal white adipose tissue at 40 to 80 mg/kg/day, po for 8 weeks by Western blot analysis; type: functional, organism-based; settings: dose 40-80 mg/kg/day

With CCOc1ccc(Oc2ccc(C(=O)/C=C/c3cc(O)c(O)c(Br)c3Br)cc2)cc1 the IC50 [1] was 1.06 µM, the IC50 [2] was 14.8 µM and the IC50 [3] was 15.8 µM. For the same molecule, the Kd [4] was 0.0612 µM, the inhibition [5] was “Dose-dependent-effect” and the inhibition [6] was “Dose-dependent-effect”. The inhibition [7] was “Dose-dependent-effect”, the inhibition [8] was “Dose-dependent-effect” and the inhibition [9] was “Dose-dependent-effect”. For the same molecule, the Activity [10] was “Dose-dependent-effect”, the Activity [11] was “Non-toxic” and the Activity [12] was “Non-toxic”. For the same molecule, the Activity [13] was “Non-toxic”, the Activity [14] was “Non-toxic” and the Activity [15] was “Non-toxic”. For the same molecule, the Activity [16] was “Non-toxic”, the Activity [17] was “Non-toxic” and the Activity [18] was “Non-toxic”. For the same molecule, the Activity [19] was “Non-toxic”, the Activity [20] was “Non-toxic” and the Activity [21] was “Non-toxic”. The Activity [22] was “Non-toxic”, the Activity [23] was “Active” and the Activity [24] was “Active”. For the same molecule, the Activity [25] was “Active”, the Activity [26] was “Active” and the Activity [27] was “Active”.
